Values quoted from earlier work in US20070202055A1, “Pharmaceutical Formulations” (priority 2006, published 2007).

Columns and labels:
[1] = system: symptoms associated with chronic nasal congestion
[2] = system: secretions of natural tear components; conditions: preclinical testing

**Q.** For `Oc1cccc(Nc2ncc(F)c(Nc3cccc(O)c3)n2)c1` [Example R112], which “absolute difference over placebo” value [1] is on record?
**A.** 9%

**Q.** What about the “relative improvement over placebo” value [1] of the same molecule?
**A.** greater than 20%

**Q.** What about the “improvement from baseline measurements” value ([1]; baseline prior to drug initiation) of the same molecule?
**A.** up to 38%

**Q.** With `Cc1cc(CCCOc2c(C)cc(-c3noc(C(F)(F)F)n3)cc2C)on1` [Pleconaril, 1,2,4-oxadiazole3-[3,5-Dimethyl-4-[3-(3-methyl-5-isoxazolyl)propoxy]phenyl]-5-(trifluoremethyl)] as the molecule, how does the activity against rhinoviruses (rhinoviruses) read?
**A.** active

**Q.** What about the “solubility in aqueous solvents” value (aqueous solvents) of the same molecule?
**A.** insoluble

**Q.** And the “solubility in liquids of low polarity” value (for example corn oil and ethanol)?
**A.** soluble only in liquids of low polarity

**Q.** For `O=c1ccn([C@@H]2O[C@H](COP(=O)(O)OP(=O)(O)OP(=O)(O)OP(=O)(O)OC[C@H]3O[C@@H](n4ccc(=O)[nH]c4=O)[C@H](O)[C@@H]3O)[C@@H](O)[C@H]2O)c(=O)[nH]1` [diquafosol], which “effect on secretions of natural tear components” value [2] is on record?
**A.** increased the secretions of natural tear components
